In PMC11483378, “Triazole-Based Thiamine Analogues as Inhibitors of Thiamine Pyrophosphate-Dependent Enzymes: 1,3-Dicarboxylate for Metal Binding” (ACS Omega, 2024):

Columns and labels:
A. viridans PO = A. viridans PO (Aerococcus viridans, UniProt A9X9K8); experiment: A. viridans PO inhibitory activity assay (quinoneimine dye); format: biochemical; conditions: read-out: KM(TPP)
Protocol: A. viridans PO and horseradish peroxidase were purchased from Sigma. A. viridans PO activity was determined by monitoring appearance of quinoneimine dye at 550 nm using a microplate reader (CLARIOstar) and conducted as described[5] with some modifications. […] The reaction buffer (50 mM KH2PO4 and 10 mM MgCl2, pH 5.9) contained TPP at specified concentrations, 10 μM flavin adenine dinucleotide, 0.15% 4-aminoantipyrine, 0.3% N-ethyl-N-(2-hydroxy-3-sulfopropyl)-m-toluidine (EHSPT), 50 μg/mL horseradish peroxidase, and 0.35 U/mL A. viridans PO. The reaction mixture was preincubated at 37 °C with inhibitor for 30 min, and then the reaction was initiated by adding pyruvate to a final concentration of 50 mM. To determine the IC50, TPP concentration was set at 60 μM with varying inhibitor concentrations. One unit of PO activity is defined as the production of 1 μmol of hydrogen peroxide per minute. The IC50 values were calculated from nonlinear regression curve fitting using GraphPad Prism.
(§1) Enzyme inhibitory activity assays – methods and results (Figures S1-4) […]
(§2) The compound […]
A. viridans PO inhibitory activity assay. A. viridans PO and horseradish peroxidase were purchased from Sigma. A. viridans PO activity was determined by monitoring appearance of quinoneimine dye at 550 nm using a microplate reader (CLARIOstar) and conducted as described3 with some modifications. […]
buffer (50 mM KH2PO4 and 10 mM MgCl2, pH 5.9) contained TPP at specified concentrations, 10 µM flavin adenine dinucleotide (FAD), 0.15% 4-aminoantipyrine, 0.3% N-ethyl-N-(2-hydroxy-3-sulfopropyl)-m-toluidine (EHSPT), 50 µg/mL horseradish peroxidase and 0.35 U/mL A. viridans PO. The reaction mixture was preincubated at 37 °C with inhibitor for 30 min, then reaction was initiated by adding pyruvate to a final concentration of 50 mM. To determine the IC50, TPP concentration was set was set at 60 µM with varying inhibitor concentrations. One unit of PO activity is defined as the production of 1 μmol of hydrogen peroxide per minute. The IC 50 values were calculated from non-linear regression curve fitting using GraphPad Prism. […]

Porcine PDH E1 = molecular target: T1, Porcine PDH E1 (Sus scrofa, UniProt P29804); experiment: Porcine PDH E1 inhibitory activity assay (DCPIP reduction); format: biochemical
T1 sequence (P29804 31-390): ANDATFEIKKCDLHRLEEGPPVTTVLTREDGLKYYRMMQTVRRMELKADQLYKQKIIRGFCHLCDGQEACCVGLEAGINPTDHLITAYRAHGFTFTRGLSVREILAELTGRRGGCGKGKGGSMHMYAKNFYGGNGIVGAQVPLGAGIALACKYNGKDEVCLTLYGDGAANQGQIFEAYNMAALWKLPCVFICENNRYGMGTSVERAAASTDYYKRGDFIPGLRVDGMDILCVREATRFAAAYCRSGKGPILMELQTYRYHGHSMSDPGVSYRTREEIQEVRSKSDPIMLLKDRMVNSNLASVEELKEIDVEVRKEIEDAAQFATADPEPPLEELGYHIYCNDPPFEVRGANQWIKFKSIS
Protocol: Porcine PDH E1 was purchased from Sigma. Porcine PDH E1 activity was determined by monitoring 2,6-dichlorophenolindophenol (DCPIP) reduction at 600 nm using a microplate reader (CLARIOstar) and conducted as described[5] with some modifications. […] The reaction buffer (50 mM KH2PO4 and 1 mM MgCl2, pH 7) contained thiamine pyrophosphate (TPP) at specified concentrations, 0.25 mM DCPIP, and 2 mg/mL porcine PDH E1. The reaction mixture was preincubated at 37 °C with the inhibitor for 30 min, and then the reaction was initiated by adding pyruvate to a final concentration of 50 mM. To determine the half-maximal inhibitory concentration (IC50), the TPP concentration was set at 60 μM with varying inhibitor concentrations. Specific activity was calculated using the molar extinction coefficient of DCPIP, 21 mM^–1 cm^–1.[28] The IC50 values were calculated from nonlinear regression curve fitting using GraphPad Prism.
Porcine PDH E1 inhibitory activity assay. Porcine PDH E1 was purchased from Sigma. Porcine PDH E1 activity was determined by monitoring 2,6-dichlorophenolindophenol (DCPIP) reduction at 600 nm using a microplate reader (CLARIOstar) and conducted as described3 with some modifications. The […]
buffer (50 mM KH2PO4 and 1 mM MgCl2, pH 7) contained thiamine pyrophosphate (TPP) at specified concentrations, 0.25 mM 2,6-dichlorophenolindophenol (DCPIP), and 2 mg/mL porcine PDH E1. The reaction mixture was preincubated at 37 °C with the inhibitor for 30 min, then reaction was initiated by adding pyruvate to a final concentration of 50 mM. To determine the half-maximal inhibitory concentration (IC50), TPP concentration was set at 60 µM with varying inhibitor concentrations. […]
values were calculated from non-linear regression curve fitting using GraphPad Prism. […]

E. coli OGDH E1 = E. coli OGDH E1 (Escherichia coli, UniProt P0AFG3); experiment: E. coli OGDH E1 inhibitory activity assay (DCPIP reduction); format: biochemical; conditions: compound at 200 μM, assay conditions of previous study
E. coli OGDH E1, sequence (P0AFG3 whole entry): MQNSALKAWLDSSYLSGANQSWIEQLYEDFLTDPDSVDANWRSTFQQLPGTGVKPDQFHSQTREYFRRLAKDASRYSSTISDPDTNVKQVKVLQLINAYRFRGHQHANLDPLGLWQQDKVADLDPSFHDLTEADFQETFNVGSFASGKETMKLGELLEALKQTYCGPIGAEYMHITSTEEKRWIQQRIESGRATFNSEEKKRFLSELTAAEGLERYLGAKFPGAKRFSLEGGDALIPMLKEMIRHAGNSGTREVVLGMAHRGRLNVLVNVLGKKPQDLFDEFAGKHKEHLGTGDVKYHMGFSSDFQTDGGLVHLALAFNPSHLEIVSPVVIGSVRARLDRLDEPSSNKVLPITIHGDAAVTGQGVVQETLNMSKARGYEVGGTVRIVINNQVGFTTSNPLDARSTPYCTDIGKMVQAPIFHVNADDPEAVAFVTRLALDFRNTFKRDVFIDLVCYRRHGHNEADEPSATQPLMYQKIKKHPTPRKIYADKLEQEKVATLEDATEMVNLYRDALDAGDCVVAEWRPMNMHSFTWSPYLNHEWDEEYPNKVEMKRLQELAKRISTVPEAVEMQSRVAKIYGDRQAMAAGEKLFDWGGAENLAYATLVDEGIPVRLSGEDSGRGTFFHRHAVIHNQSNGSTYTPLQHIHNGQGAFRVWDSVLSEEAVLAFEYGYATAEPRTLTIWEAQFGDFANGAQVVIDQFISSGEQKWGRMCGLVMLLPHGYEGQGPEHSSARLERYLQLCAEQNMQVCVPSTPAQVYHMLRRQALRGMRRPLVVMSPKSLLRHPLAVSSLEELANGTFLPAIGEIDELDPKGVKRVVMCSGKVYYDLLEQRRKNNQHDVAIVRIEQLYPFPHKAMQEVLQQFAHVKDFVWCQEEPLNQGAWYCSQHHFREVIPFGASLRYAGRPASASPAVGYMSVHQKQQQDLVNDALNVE
Protocol: E. coli OGDH E1 was from material donated by R. Frank. E. coli OGDH E1 activity was determined by monitoring DCPIP reduction at 600 nm using a microplate reader (CLARIOstar) and conducted as described[5] with some modifications. […] The reaction buffer (50 mM KH2PO4 and 2 mM MgCl2, pH 7) contained TPP at specified concentrations, 0.5 mM DCPIP, and 6.7 mg/mL E. coli OGDH E1. The reaction mixture was preincubated at 37 °C with the inhibitor for 60 min, and then the reaction was initiated by adding α-ketoglutarate to a final concentration of 10 mM. To determine the IC50, the TPP concentration was set at 60 μM with varying inhibitor concentrations. Specific activity was calculated using the molar extinction coefficient of DCPIP, 21 mM^–1 cm^–1.[28] The IC50 values were calculated from nonlinear regression curve fitting using GraphPad Prism.
as §1, §2
E. coli OGDH E1 inhibitory activity assay. E. coli OGDH E1 was from material donated by R. Frank. E. coli OGDH E1 activity was determined by monitoring DCPIP reduction at 600 nm using a microplate reader (CLARIOstar) and conducted as described3 with some modifications. The percentage inhibition of compounds against E. coli OGDH E1 was assayed at 250 μM. The reaction buffer (50 mM KH 2PO4 and 2 mM MgCl2, pH 7) contained TPP at specified concentrations, 0.5 mM DCPIP, and 6.7 mg/ml E. coli OGDH E1. The reaction mixture was preincubated at 37 °C with the inhibitor for 60 min, then reaction was initiated by adding α-ketoglutarate to a final concentration of 10 mM. To determine the IC50, TPP concentration was set at 60 µM with varying inhibitor concentrations. Specific activity was […]

[1] = PAMPA (parallel artificial membrane permeability assay); format: in vitro ADME
Protocol: PAMPA – methods and results (Table S2)
PAMPA was carried out in 96-well microtiter filter plates obtained from Millipore as described1 with some modifications. Each well of the filter plate was impregnated with 15 µL of 5% hexadecane dissolved in hexane (i.e. total amount of hexadecane: 0.75 µL) for at least 10 minutes in ventilated environment to allow for complete evaporation of hexane. Donor compartments were filled with 200 µL compound-containing donor solutions of compounds dissolved in 5% DMSO, phosphate buffered saline PBS) and connected to acceptor plate prefilled with buffer (5% DMSO in PBS, pH 7.4). The resulting sandwich was incubated at room temperature under gentle shaking and wrapped in wet paper towels to avoid evaporation. After 10 hours, the sandwich was disassembled and the solutions in the acceptor and donor were transferred to a disposable UV-transparent plate. UV absorption was measured at wavelengths between 220 and 340 nm using a microplate reader (CLARIOstar).
Compounds were tested at 500 µM. Calibration to determine concentration of compounds were performed with varying compound concentrations in buffer (5% DMSO in PBS).
The artificial membrane permeability is expressed as fraction absorbed (Fa%)2 or log Pe (log of the effective permeability)1. LogD values at pH 7.4 were calculated using MarvinSketch.
Fa% = 100 ∙CA ∙VA / CD0 ∙ VD where: CA = final drug concentration in the acceptor well (µM)
VA = volume in the acceptor well (cm3)
CD0 = Initial drug concentration in the donor well (µM)
VD = volume in the donor well (cm3) log P (cm/s) = log -ln 1-CA/Cequilibrium
S = surface area (cm2), typically 0.268 cm2
Cequilibrium = theoretical equilibrium concentration = [CD ∙VD+CA ∙VA] / [VD+VA] where: CD = final drug concentration in the donor well (µM)
CA = final drug concentration in the acceptor well (µM)
Table S2. Permeability data.
Compounds Fa (%) PAMPA log Pe (cm/s) cLogD (pH = 7.4)

[2] = Solubility in aqueous buffer / enzyme assay conditions; format: physicochemical
[3] = substrate: Cc1ncc(C[n+]2csc(CCO[P@](=O)(O)OP(=O)(O)O)c2C)c(N)n1; experiment: S. cerevisiae PDC inhibitory activity assay (DCPIP reduction); format: biochemical, Saccharomyces cerevisiae; conditions: 37.0 °C
Protocol: S. cerevisiae PDC was purchased from Sigma. S. cerevisiae PDC activity was determined by monitoring DCPIP reduction at 600 nm using a microplate reader (CLARIOstar) and conducted as described[5] with some modifications. […] The reaction buffer (50 mM KH2PO4 and 1 mM MgCl2, pH 7) contained TPP at specified concentrations, 0.27 mM DCPIP, and 0.15 mg/mL S. cerevisiae PDC. The reaction mixture was preincubated at 37 °C with the inhibitor for 60 min, and then the reaction was initiated by adding pyruvate to a final concentration of 70 mM. […] Specific activity was calculated using the molar extinction coefficient of DCPIP, 21 mM^–1 cm^–1.[28] The IC50 values were calculated from nonlinear regression curve fitting using GraphPad Prism.
as §1, §2
S. cerevisiae PDC inhibitory activity assay. S. cerevisiae PDC was purchased from Sigma. S. cerevisiae PDC activity was determined by monitoring DCPIP reduction at 600 nm using a microplate reader (CLARIOstar) and conducted as described3 with some modifications. The percentage inhibition of compounds against S. cerevisiae PDC was assayed at 750 μM. The reaction buffer (50 mM KH 2PO4 and 1 mM MgCl2, pH 7) contained TPP at specified concentrations, 0.27 mM DCPIP, and 0.15 mg/ml S. cerevisiae PDC. […]
calculated from non-linear regression curve fitting using GraphPad Prism. […]

A. viridans PO, sequence (A9X9K8 entry or part of it): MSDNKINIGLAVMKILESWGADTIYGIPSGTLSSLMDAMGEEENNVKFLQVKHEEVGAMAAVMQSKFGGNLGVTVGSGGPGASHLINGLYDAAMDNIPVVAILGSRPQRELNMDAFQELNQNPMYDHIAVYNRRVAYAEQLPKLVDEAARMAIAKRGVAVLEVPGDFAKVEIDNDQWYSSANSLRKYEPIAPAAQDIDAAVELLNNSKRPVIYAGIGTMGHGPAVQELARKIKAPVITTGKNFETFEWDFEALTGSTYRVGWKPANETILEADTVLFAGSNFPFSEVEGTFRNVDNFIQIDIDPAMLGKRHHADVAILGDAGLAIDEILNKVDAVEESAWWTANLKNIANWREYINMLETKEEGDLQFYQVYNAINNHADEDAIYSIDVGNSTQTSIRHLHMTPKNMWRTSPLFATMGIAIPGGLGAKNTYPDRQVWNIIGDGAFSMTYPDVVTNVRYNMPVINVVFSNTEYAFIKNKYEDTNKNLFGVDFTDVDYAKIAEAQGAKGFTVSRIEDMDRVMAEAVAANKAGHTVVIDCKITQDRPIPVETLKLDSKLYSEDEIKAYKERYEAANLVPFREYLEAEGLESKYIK

For `Cc1ncc(C[n+]2csc(CCO[P@](=O)(O)OP(=O)(O)O)c2C)c(N)n1` [TPP, thiamine pyrophosphate], the Km (A. viridans PO) was 5 µM.

For `CCC(CC)COC(=O)[C@H](C)NP(=O)(OCCc1cn(Cc2cnc(C)nc2N)nn1)Oc1ccccc1` (stereo partly drawn) [compound 12], the inhibition (Porcine PDH E1; compound at 10 μM, assay conditions of previous study) was “no inhibition”, the inhibition (Porcine PDH E1; compound at 100 μM) was “no inhibition” and the inhibition (E. coli OGDH E1) was “no inhibition”. The “membrane permeability in PAMPA (in words)” value ([1]; PAMPA) was “membrane-permeable”, the Papp at 10 h, 500 µM ([1]; PAMPA, compounds at 500 µM, 5% DMSO in PBS pH 7.4, 10 hours, room temperature, read-out: PAMPA log Pe (converted)) was 79.4 nm/s and the “Fa (fraction absorbed)” value ([1]; compounds at 500 µM, 5% DMSO in PBS pH 7.4, 10 hours, room temperature) was 48%. The “solubility under the enzyme assay conditions” value ([2]; OGDH E1 assay, 300 μM) was “insufficiently soluble”, the solubility ([2]; PBS with 5% DMSO, aqueous with cosolvent or surfactant or cyclodextrin, kinetic from dmso stock, read-out: solubility in aqueous environments) was under 300 µM and the “solubility under the enzyme assay conditions” value ([2]; PDC assay conditions, 1300 μM) was “not sufficiently soluble”. The “solubility under the enzyme assay conditions” value ([2]; PO assay conditions, 400 μM) was “not sufficiently soluble”.

B1: S. cerevisiae PDC (Saccharomyces cerevisiae S288C) (protein)
chain: SEITLGKYLFERLKQVNVNTVFGLPGDFNLSLLDKIYEVEGMRWAGNANELNAAYAADGYARIKGMSCIITTFGVGELSALNGIAGSYAEHVGVLHVVGVPSISAQAKQLLLHHTLGNGDFTVFHRMSANISETTAMITDIATAPAEIDRCIRTTYVTQRPVYLGLPANLVDLNVPAKLLQTPIDMSLKPNDAESEKEVIDTILALVKDAKNPVILADACCSRHDVKAETKKLIDLTQFPAFVTPMGKGSIDEQHPRYGGVYVGTLSKPEVKEAVESADLILSVGALLSDFNTGSFSYSYKTKNIVEFHSDHMKIRNATFPGVQMKFVLQKLLTTIADAAKGYKPVAVPARTPANAAVPASTPLKQEWMWNQLGNFLQEGDVVIAETGTSAFGINQTTFPNNTYGISQVLWGSIGFTTGATLGAAFAAEEIDPKKRVILFIGDGSLQLTVQEISTMIRWGLKPYLFVLNNDGYTIEKLIHGPKAQYNEIQGWDHLSLLPTFGAKDYETHRVATTGEWDKLTQDKSFNDNSKIRMIEIMLPVFDAPQNLVEQAKLTAATNAKQ
notes: purchased Sigma
With B1 the Km [3] was 15 µM.
